From BindingDB's records for PubMed 33873056 (California Institute of Technology, 2021)

Biological target: Transitional endoplasmic reticulum ATPase (Homo sapiens) (UniProt P55072)
Test: Inhibition of p97 (unknown origin) expressed in Escherichia coli BL21 (DE3) preincubated for 10 mins followed by ATP addition measured for 30 to 120 mins by malachite green based assay

Chain of Transitional endoplasmic reticulum ATPase (Homo sapiens) (P55072 whole entry, looked up): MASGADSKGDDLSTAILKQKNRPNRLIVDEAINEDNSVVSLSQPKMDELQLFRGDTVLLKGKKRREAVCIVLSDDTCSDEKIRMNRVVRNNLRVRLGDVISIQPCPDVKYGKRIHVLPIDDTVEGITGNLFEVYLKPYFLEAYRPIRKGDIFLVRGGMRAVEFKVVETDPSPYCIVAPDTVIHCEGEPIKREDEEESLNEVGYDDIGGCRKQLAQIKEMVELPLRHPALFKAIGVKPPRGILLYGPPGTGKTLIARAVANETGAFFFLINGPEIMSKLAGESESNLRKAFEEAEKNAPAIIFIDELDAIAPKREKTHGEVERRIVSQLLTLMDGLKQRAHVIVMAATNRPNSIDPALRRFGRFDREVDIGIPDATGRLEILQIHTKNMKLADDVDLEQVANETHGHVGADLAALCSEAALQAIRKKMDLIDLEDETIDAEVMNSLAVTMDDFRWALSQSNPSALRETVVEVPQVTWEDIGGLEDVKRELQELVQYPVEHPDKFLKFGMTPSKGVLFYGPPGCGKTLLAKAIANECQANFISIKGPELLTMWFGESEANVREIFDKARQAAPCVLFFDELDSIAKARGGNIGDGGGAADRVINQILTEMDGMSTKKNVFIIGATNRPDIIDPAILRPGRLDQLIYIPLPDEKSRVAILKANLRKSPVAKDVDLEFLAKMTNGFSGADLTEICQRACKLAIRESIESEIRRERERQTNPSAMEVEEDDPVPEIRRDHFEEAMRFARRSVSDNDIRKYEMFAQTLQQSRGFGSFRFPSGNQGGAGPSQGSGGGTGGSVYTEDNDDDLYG

- IC50: 15.3 µM
Compound: C[C@H]1CCC/C=C/C(=O)c2c(O)cc(O)cc2CC(=O)O1 [DEHYDROCURVULARIN]
